Results published in PubChem BioAssay AID1963826 (Molecular Pharmacology Branch, DTP, NCI, 2024).

System: 926638-142-R-J1-PDC complex spheroid viability
Test: Anticancer human tumor 926638-142-R-J1-PDC patient-derived endometrial carcinoma cell line growth inhibition [POLQ]
Details: for IC50: curve of first compound; for viability, T/C: stronger effect = lower value; active means viability on the fitted dose curve at most 10% of control; inactive means the rest
In short: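 Patient-derived tumour cells were co-cultured with HUVEC and mesenchymal stem cells as multicellular spheroids at 37 °C. They were treated with POLQ inhibitors (novobiocin, ART-558, RP6685) alone or combined with other agents. Top concentrations were at or near clinical Cmax (otherwise 10 microM; SN-38 at 1 microM), decreasing in half-log steps.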

[1] = second compound 0.0316 µM, first compound 0.0316 µM
[2] = second compound 0.0316 µM, first compound 0.1 µM
[3] = second compound 0.0316 µM, first compound 0.316 µM
[4] = second compound 0.0316 µM, first compound 1 µM
[5] = second compound 0.0316 µM, first compound 3.16 µM
[6] = second compound 0.0316 µM, first compound 10 µM
[7] = second compound 0.1 µM, first compound 0.0316 µM
[8] = second compound 0.1 µM, first compound 0.1 µM
[9] = second compound 0.1 µM, first compound 0.316 µM
[10] = second compound 0.1 µM, first compound 1 µM
[11] = second compound 0.1 µM, first compound 3.16 µM
[12] = second compound 0.1 µM, first compound 10 µM
[13] = second compound 0.316 µM, first compound 0.0316 µM
[14] = second compound 0.316 µM, first compound 0.1 µM
[15] = second compound 0.316 µM, first compound 0.316 µM
[16] = second compound 0.316 µM, first compound 1 µM
[17] = second compound 0.316 µM, first compound 3.16 µM
[18] = second compound 0.316 µM, first compound 10 µM
[19] = second compound 1 µM, first compound 0.0316 µM
[20] = second compound 1 µM, first compound 0.1 µM
[21] = second compound 1 µM, first compound 0.316 µM
[22] = second compound 1 µM, first compound 1 µM
[23] = second compound 1 µM, first compound 3.16 µM
[24] = second compound 1 µM, first compound 10 µM
[25] = second compound 3.16 µM, first compound 0.0316 µM
[26] = second compound 3.16 µM, first compound 0.1 µM
[27] = second compound 3.16 µM, first compound 0.316 µM
[28] = second compound 3.16 µM, first compound 1 µM
[29] = second compound 3.16 µM, first compound 3.16 µM
[30] = second compound 3.16 µM, first compound 10 µM
[31] = second compound 10 µM, first compound 0.0316 µM
[32] = second compound 10 µM, first compound 0.1 µM
[33] = second compound 10 µM, first compound 0.316 µM
[34] = second compound 10 µM, first compound 1 µM
[35] = second compound 10 µM, first compound 3.16 µM
[36] = second compound 10 µM, first compound 10 µM
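Further: spheroids exposed to drugs for one week before readout.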
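Wherever viability, T/C is given: percent viability relative to DMSO vehicle control wells set as 100%.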

CCCS(=O)(=O)Nc1ccc(F)c(C(=O)c2c[nH]c3ncc(-c4ccc(Cl)cc4)cc23)c1F + COC1C(OC(N)=O)C(O)C(Oc2ccc3c(O)c(NC(=O)c4ccc(O)c(CC=C(C)C)c4)c(=O)oc3c2C)OC1(C)C
inactive: viability, T/C [1] 112% | viability, T/C [2] 89.5% | viability, T/C [3] 93.1% | viability, T/C [4] 122% | viability, T/C [5] 86.4% | viability, T/C [6] 45% | viability, T/C [7] 108% | viability, T/C [8] 105% | viability, T/C [9] 83.3% | viability, T/C [10] 112% | viability, T/C [11] 91.3% | viability, T/C [12] 49.1% | viability, T/C [13] 110% | viability, T/C [14] 114% | viability, T/C [15] 118% | viability, T/C [16] 116% | viability, T/C [17] 105% | viability, T/C [18] 49.6% | viability, T/C [19] 84% | viability, T/C [20] 95.7% | viability, T/C [21] 104% | viability, T/C [22] 101% | viability, T/C [23] 98.8% | viability, T/C [24] 52.2% | viability, T/C [25] 89.7% | viability, T/C [26] 92.3% | viability, T/C [27] 89.2% | viability, T/C [28] 95.2% | viability, T/C [29] 95.5% | viability, T/C [30] 49.2% | viability, T/C [31] 81.9% | viability, T/C [32] 93.7% | viability, T/C [33] 90% | viability, T/C [34] 84% | viability, T/C [35] 83.7% | viability, T/C [36] 49.5%
9.97 µM: IC50 (second compound 0.316 µM)
9.78 µM: IC50 (second compound 3.16 µM)
> 10 µM: IC50 (second compound 1 µM)
9.76 µM: IC50 (second compound 0.1 µM)
8.72 µM: IC50 (second compound 0.0316 µM)
9.92 µM: IC50 (second compound 10 µM)

O=c1[nH]cc(F)c(=O)[nH]1 + Cc1cccc(N(C)C(=O)C2C(O)CCN2c2nc(C)cc(C(F)(F)F)c2C#N)c1
inactive: viability, T/C [1] 106% | viability, T/C [2] 98.6% | viability, T/C [3] 96.6% | viability, T/C [4] 104% | viability, T/C [5] 89.5% | viability, T/C [6] 82.2% | viability, T/C [7] 111% | viability, T/C [8] 91.2% | viability, T/C [9] 110% | viability, T/C [10] 82.1% | viability, T/C [11] 106% | viability, T/C [12] 71.4% | viability, T/C [13] 88.3% | viability, T/C [14] 80.2% | viability, T/C [15] 98.8% | viability, T/C [16] 83.5% | viability, T/C [17] 88.1% | viability, T/C [18] 75% | viability, T/C [19] 81.2% | viability, T/C [20] 104% | viability, T/C [21] 88.4% | viability, T/C [22] 97.5% | viability, T/C [23] 81.4% | viability, T/C [24] 81.5% | viability, T/C [25] 98.7% | viability, T/C [26] 89.4% | viability, T/C [27] 82.7% | viability, T/C [28] 90.9% | viability, T/C [29] 91% | viability, T/C [30] 92.8% | viability, T/C [31] 81.5% | viability, T/C [32] 98.4% | viability, T/C [33] 90% | viability, T/C [34] 95.2% | viability, T/C [35] 107% | viability, T/C [36] 80.8%
> 10 µM: IC50 (second compound 0.0316 µM) | IC50 (second compound 0.1 µM) | IC50 (second compound 0.316 µM) | IC50 (second compound 1 µM) | IC50 (second compound 3.16 µM) | IC50 (second compound 10 µM)

CCc1c2c(nc3ccc(O)cc13)-c1cc3c(c(=O)n1C2)COC(=O)[C@]3(O)CC + Cc1cccc(N(C)C(=O)C2C(O)CCN2c2nc(C)cc(C(F)(F)F)c2C#N)c1
0.012 µM: IC50 (second compound 0.316 µM)
inactive: viability, T/C (second compound 0.0316 µM, first compound 0.00316 µM) 55.6% | viability, T/C (second compound 0.0316 µM, first compound 0.01 µM) 43.5% | viability, T/C [1] 38% | viability, T/C [2] 17.1% | viability, T/C [3] 11.1% | viability, T/C (second compound 0.1 µM, first compound 0.00316 µM) 75.3% | viability, T/C (second compound 0.1 µM, first compound 0.01 µM) 51.9% | viability, T/C [7] 35.1% | viability, T/C [8] 17.8% | viability, T/C (second compound 0.316 µM, first compound 0.00316 µM) 69.8% | viability, T/C (second compound 0.316 µM, first compound 0.01 µM) 52.8% | viability, T/C [13] 35.6% | viability, T/C [14] 19.3% | viability, T/C [15] 12.3% | viability, T/C (second compound 1 µM, first compound 0.00316 µM) 69.6% | viability, T/C (second compound 1 µM, first compound 0.01 µM) 50.9% | viability, T/C [19] 29.8% | viability, T/C [20] 17% | viability, T/C [21] 13.9% | viability, T/C (second compound 3.16 µM, first compound 0.00316 µM) 62.8% | viability, T/C (second compound 3.16 µM, first compound 0.01 µM) 54% | viability, T/C [25] 35.1% | viability, T/C [26] 21.1% | viability, T/C [27] 9.95% | viability, T/C (second compound 10 µM, first compound 0.00316 µM) 69.4% | viability, T/C (second compound 10 µM, first compound 0.01 µM) 50.5% | viability, T/C [31] 34.6% | viability, T/C [32] 22.5% | viability, T/C [33] 10.4%
0.00983 µM: IC50 (second compound 1 µM)
0.0107 µM: IC50 (second compound 10 µM)
active: viability, T/C [4] 5.47% | viability, T/C [9] 9.35% | viability, T/C [10] 4.26% | viability, T/C [16] 4.42% | viability, T/C [22] 4.44% | viability, T/C [28] 5.61% | viability, T/C [34] 4.3%
0.0122 µM: IC50 (second compound 3.16 µM)
0.0119 µM: IC50 (second compound 0.1 µM)
0.00618 µM: IC50 (second compound 0.0316 µM)

CCCS(=O)(=O)Nc1ccc(F)c(C(=O)c2c[nH]c3ncc(-c4ccc(Cl)cc4)cc23)c1F + Nc1ccc(C#CCN(C(=O)Cc2ncc(C(F)(F)F)cc2C(F)(F)F)c2ccc(F)cc2)nn1
6.87 µM: IC50 (second compound 10 µM)
8.43 µM: IC50 (second compound 3.16 µM)
inactive: viability, T/C [1] 99.5% | viability, T/C [2] 90.5% | viability, T/C [3] 103% | viability, T/C [4] 85.7% | viability, T/C [5] 80% | viability, T/C [6] 42.2% | viability, T/C [7] 111% | viability, T/C [8] 85.7% | viability, T/C [9] 103% | viability, T/C [10] 81.8% | viability, T/C [11] 94.5% | viability, T/C [12] 50.9% | viability, T/C [13] 90.4% | viability, T/C [14] 97.9% | viability, T/C [15] 100% | viability, T/C [16] 99.9% | viability, T/C [17] 87.1% | viability, T/C [18] 45.3% | viability, T/C [19] 105% | viability, T/C [20] 92.1% | viability, T/C [21] 93.3% | viability, T/C [22] 92.8% | viability, T/C [23] 80.4% | viability, T/C [24] 44.8% | viability, T/C [25] 89.8% | viability, T/C [26] 83.6% | viability, T/C [27] 90.5% | viability, T/C [28] 87.8% | viability, T/C [29] 88.6% | viability, T/C [30] 43.4% | viability, T/C [31] 87.9% | viability, T/C [32] 93.5% | viability, T/C [33] 91.3% | viability, T/C [34] 82.6% | viability, T/C [35] 71.2% | viability, T/C [36] 40.1%
7.88 µM: IC50 (second compound 0.0316 µM)
8.9 µM: IC50 (second compound 0.316 µM)
8.58 µM: IC50 (second compound 1 µM)
> 10 µM: IC50 (second compound 0.1 µM)

COc1cc2cc(C(=O)CCC(=O)O)sc2cc1OC + Nc1ccc(C#CCN(C(=O)Cc2ncc(C(F)(F)F)cc2C(F)(F)F)c2ccc(F)cc2)nn1
> 10 µM: IC50 (second compound 0.0316 µM) | IC50 (second compound 0.1 µM) | IC50 (second compound 0.316 µM) | IC50 (second compound 1 µM) | IC50 (second compound 3.16 µM) | IC50 (second compound 10 µM)
inactive: viability, T/C [1] 101% | viability, T/C [2] 99.4% | viability, T/C [3] 104% | viability, T/C [4] 98.5% | viability, T/C [5] 104% | viability, T/C [6] 70% | viability, T/C [7] 111% | viability, T/C [8] 97.8% | viability, T/C [9] 91.1% | viability, T/C [10] 96.4% | viability, T/C [11] 104% | viability, T/C [12] 103% | viability, T/C [13] 110% | viability, T/C [14] 105% | viability, T/C [15] 107% | viability, T/C [16] 102% | viability, T/C [17] 112% | viability, T/C [18] 99.9% | viability, T/C [19] 111% | viability, T/C [20] 108% | viability, T/C [21] 90.4% | viability, T/C [22] 101% | viability, T/C [23] 112% | viability, T/C [24] 85.1% | viability, T/C [25] 110% | viability, T/C [26] 93.9% | viability, T/C [27] 105% | viability, T/C [28] 101% | viability, T/C [29] 104% | viability, T/C [30] 88.4% | viability, T/C [31] 89.3% | viability, T/C [32] 101% | viability, T/C [33] 83.4% | viability, T/C [34] 85.2% | viability, T/C [35] 96.4% | viability, T/C [36] 87.8%
